How the values were obtained:
[1] = biological target: alkaline phosphatase isolated from leukocytes (Homo sapiens, UniProt P05186); settings: 0.02M EDTA; cited from earlier work
[2] = biological target: E. coli alkaline phosphatase, trypsin-modified (tm-AP) (Escherichia coli, UniProt P00634); settings: 2.6×10^-6 M enzyme, 0.5 M NaCl, 0.025 M Tris, pH 7.5
Protocol: (§1) Enzyme was incubated with EDTA; conditions- 2.6×10^-6 M enzyme, -0.015 M EDTA, 0.5 M NaCl, 5×10^-4 M Mg(II), 5×10^-5 M Zn(II), 5×10^-4 M spermidine, 0.025 M Tris, pH 7.5. Aliquots were withdrawn at the indicated time points and enzymatic activity in the standard phosphohydrolase assay (Appleburg, M. L. and J. E. Coleman J. Biol. Chem. 244: 308 (1969)) was determined. Data are shown as the per cent of the initial activity remaining at the times indicated. […] Enzyme was harvested and activity determined.
(§2) Following inactivation, samples of th enzymes were dialyzed against buffer solutions containing Zn(II) and Mg(II) ions (arrow in FIG. 14).

[3] = biological target: native bacterial alkaline phosphatase (BAP) (Escherichia coli, UniProt P00634); settings: 2.6×10^-6 M enzyme, 0.5 M NaCl, 0.025 M Tris, pH 7.5
native bacterial alkaline phosphatase (BAP), sequence (P00634 22-471): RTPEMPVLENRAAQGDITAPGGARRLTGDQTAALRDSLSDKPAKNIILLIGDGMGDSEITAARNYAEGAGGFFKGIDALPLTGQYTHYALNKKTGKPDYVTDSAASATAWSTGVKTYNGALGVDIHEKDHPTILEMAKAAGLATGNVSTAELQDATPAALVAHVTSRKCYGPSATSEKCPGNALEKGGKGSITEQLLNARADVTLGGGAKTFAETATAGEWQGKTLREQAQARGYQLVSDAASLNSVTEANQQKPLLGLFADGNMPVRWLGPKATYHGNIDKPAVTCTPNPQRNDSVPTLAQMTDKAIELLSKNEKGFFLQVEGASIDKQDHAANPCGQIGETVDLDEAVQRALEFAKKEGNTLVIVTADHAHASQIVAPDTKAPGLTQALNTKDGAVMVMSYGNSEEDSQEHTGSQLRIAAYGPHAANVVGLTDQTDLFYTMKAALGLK
Protocol: as §1, §2

alkaline phosphatase isolated from leukocytes, sequence (P05186 18-502 limits assumed): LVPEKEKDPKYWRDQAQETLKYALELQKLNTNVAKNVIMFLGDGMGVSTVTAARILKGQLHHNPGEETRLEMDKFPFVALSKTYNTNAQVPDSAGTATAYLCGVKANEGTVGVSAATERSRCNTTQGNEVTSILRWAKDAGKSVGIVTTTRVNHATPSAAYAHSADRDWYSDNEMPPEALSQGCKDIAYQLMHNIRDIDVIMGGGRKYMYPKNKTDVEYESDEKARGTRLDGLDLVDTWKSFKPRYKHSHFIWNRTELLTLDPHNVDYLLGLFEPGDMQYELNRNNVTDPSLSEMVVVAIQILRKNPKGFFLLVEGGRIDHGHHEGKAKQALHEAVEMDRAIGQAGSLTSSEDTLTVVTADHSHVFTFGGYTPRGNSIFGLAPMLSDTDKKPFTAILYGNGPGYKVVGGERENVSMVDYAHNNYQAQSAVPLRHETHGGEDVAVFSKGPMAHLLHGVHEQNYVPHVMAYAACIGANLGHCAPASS
E. coli alkaline phosphatase, trypsin-modified (tm-AP), sequence (P00634 33-471): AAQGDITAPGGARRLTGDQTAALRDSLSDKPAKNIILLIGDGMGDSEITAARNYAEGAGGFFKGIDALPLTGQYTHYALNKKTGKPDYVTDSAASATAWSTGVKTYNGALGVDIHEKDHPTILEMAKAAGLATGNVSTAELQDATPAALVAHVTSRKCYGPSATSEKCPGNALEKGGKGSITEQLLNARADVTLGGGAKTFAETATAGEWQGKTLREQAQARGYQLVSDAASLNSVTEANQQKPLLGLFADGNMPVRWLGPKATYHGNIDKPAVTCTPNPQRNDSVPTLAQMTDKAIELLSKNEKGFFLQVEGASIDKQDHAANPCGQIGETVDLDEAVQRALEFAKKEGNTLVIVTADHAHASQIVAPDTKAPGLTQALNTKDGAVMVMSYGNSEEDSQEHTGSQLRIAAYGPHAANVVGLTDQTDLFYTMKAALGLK

SMILES: O=C(O)CN(CCN(CC(=O)O)CC(=O)O)CC(=O)O [EDTA, ethylene diamine tetraacetic acid]
- inhibition after incubation with EDTA [1]: 50%
- time until activity is reduced to zero on exposure to EDTA [2]: 1.5 h
- time required for inactivation on exposure to EDTA [3]: 3.5 h

From patent US4650760A, “Modified alkaline phosphatase” (Research Corporation, priority 1985, dated 1987)
